Laboratory results as given in PubChem BioAssay (NCI).
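Here, GI50 denotes the concentration required for 50% inhibition of growth. The concentration for full growth arrest is given as TGI.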

Assays:
Assay in all cases: growth of human tumour cells (NCI), 384-well format
[1] = tested on: 786-0 renal
[2] = tested on: MOLT-4 leukemia
[3] = tested on: OVCAR-8 ovarian
[4] = tested on: U251 glioblastoma
[5] = tested on: OVCAR-5 ovarian
[6] = tested on: A498 renal
[7] = tested on: M14 melanoma
[8] = tested on: KM12 colon
[9] = tested on: SK-OV-3 ovarian
[10] = tested on: SF-268 CNS
[11] = tested on: UACC-257 melanoma
[12] = tested on: K-562 leukemia
[13] = tested on: MDA-MB-468 breast
[14] = tested on: UO-31 renal
[15] = tested on: CAKI-1 renal
[16] = tested on: RPMI-8226 leukemia
[17] = tested on: MALME-3M melanoma
[18] = tested on: SK-MEL-2 melanoma
[19] = tested on: TK-10 renal
[20] = tested on: MDA-MB-435 melanoma
[21] = tested on: EKVX NSCLC
[22] = tested on: MCF7 breast
[23] = tested on: HOP-92 NSCLC
[24] = tested on: HT29 colon
[25] = tested on: SNB-19 CNS
[26] = tested on: OVCAR-4 ovarian
[27] = tested on: MDA-MB-231 breast
[28] = tested on: OVCAR-3 ovarian
[29] = tested on: HCT-116 colon
[30] = tested on: BT-549 breast
[31] = tested on: NCI-H226 lung
[32] = tested on: CCRF-CEM leukemia
[33] = tested on: NCI-H322M lung
[34] = tested on: SF-539 CNS
[35] = tested on: A549 NSCLC
[36] = tested on: LOX IMVI melanoma
[37] = tested on: T-47D breast
[38] = tested on: NCI-H522 lung
[39] = tested on: RXF 393 renal
[40] = tested on: HCT-15 colon
[41] = tested on: SN12C renal
[42] = tested on: UACC-62 melanoma
[43] = tested on: IGROV1 ovarian
[44] = tested on: HL-60(TB) leukemia
[45] = tested on: SW-620 colon
[46] = tested on: NCI/ADR-RES ovarian
[47] = tested on: NCI-H23 lung
[48] = tested on: SF-295 CNS
[49] = tested on: HS 578T breast
[50] = tested on: ACHN renal
[51] = tested on: HOP-62 NSCLC
[52] = tested on: DU-145 prostate
[53] = tested on: SNB-75 CNS
[54] = tested on: PC-3 prostate
[55] = tested on: SK-MEL-28 melanoma

Nc1nc(=S)c2[nH]cnc2[nH]1
GI50 [1]: 0.469 µM
TGI [1]: 12 µM
GI50 [2]: 0.112 µM
TGI [2]: 0.248 µM
GI50 [3]: 0.362 µM
TGI [3]: 1.56 µM
GI50 [4]: 3.4 µM
TGI [4]: 83.3 µM
GI50 [5]: 0.199 µM
TGI [5]: 0.465 µM
GI50 [6]: 4.85 µM
TGI [6]: 28.7 µM
GI50 [7]: 0.379 µM
TGI [7]: 4.41 µM
GI50 [8]: 0.917 µM
TGI [8]: 4.9 µM
GI50 [9]: 0.541 µM
TGI [9]: 9.85 µM
GI50 [10]: 0.428 µM
TGI [10]: 2.4 µM
GI50 [11]: 1.13 µM
TGI [11]: 8.82 µM
GI50 [12]: 0.366 µM
TGI [12]: 1.21 µM
GI50 [13]: 0.238 µM
TGI [13]: 0.565 µM
GI50 [14]: 1.5 µM
TGI [14]: 11.8 µM
GI50 [15]: 0.371 µM
TGI [15]: 2.62 µM
GI50 [16]: 0.139 µM
TGI [16]: 0.296 µM
GI50 [17]: 0.718 µM
TGI [17]: 3.47 µM
GI50 [18]: 3.32 µM
TGI [18]: 7.34 µM
GI50 [19]: 0.251 µM
TGI [19]: 0.625 µM
GI50 [20]: 1.09 µM
TGI [20]: 4.73 µM
GI50 [21]: 0.544 µM
TGI [21]: 12.2 µM
GI50 [22]: 0.297 µM
TGI [22]: 1.33 µM
GI50 [23]: 0.393 µM
TGI [23]: 25.2 µM
GI50 [24]: 0.906 µM
TGI [24]: 5.3 µM
GI50 [25]: 28 µM
GI50 [26]: 1.05 µM
TGI [26]: 7.19 µM
GI50 [27]: 0.283 µM
TGI [27]: 0.918 µM
GI50 [28]: 0.306 µM
TGI [28]: 1.03 µM
GI50 [29]: 0.341 µM
TGI [29]: 7.39 µM
GI50 [30]: 0.449 µM
TGI [30]: 2.31 µM
GI50 [31]: 0.36 µM
TGI [31]: 3.92 µM
GI50 [32]: 0.212 µM
TGI [32]: 0.383 µM
GI50 [33]: 2.21 µM
TGI [33]: 21.2 µM
GI50 [34]: 0.686 µM
TGI [34]: 7.92 µM
GI50 [35]: 2.1 µM
TGI [35]: 7.53 µM
GI50 [36]: 0.206 µM
TGI [36]: 0.426 µM
GI50 [37]: 0.715 µM
TGI [37]: 15.5 µM
GI50 [38]: 1.03 µM
TGI [38]: 2.84 µM
GI50 [39]: 0.728 µM
TGI [39]: 3.51 µM
GI50 [40]: 0.988 µM
TGI [40]: 7.18 µM
GI50 [41]: 1.44 µM
TGI [41]: 8.29 µM
GI50 [42]: 0.366 µM
TGI [42]: 1.69 µM
GI50 [43]: 3.51 µM
TGI [43]: 27.7 µM
GI50 [44]: 0.376 µM
TGI [44]: 1.1 µM
GI50 [45]: 3.02 µM
TGI [45]: 23.3 µM
GI50 [46]: 0.375 µM
TGI [46]: 1.52 µM
GI50 [47]: 0.377 µM
TGI [47]: 1.69 µM
GI50 [48]: 0.248 µM
TGI [48]: 0.735 µM
GI50 [49]: 1.25 µM
TGI [49]: 4.46 µM
GI50 [50]: 1.52 µM
TGI [50]: 5.28 µM
GI50 [51]: 0.304 µM
TGI [51]: 0.784 µM
GI50 [52]: 0.311 µM
TGI [52]: 1.18 µM
GI50 [53]: 0.353 µM
TGI [53]: 13.2 µM
GI50 [54]: 1.34 µM
TGI [54]: 14.5 µM
GI50 [55]: 4.57 µM
TGI [55]: 26.7 µM

O=NN(CCCl)C(=O)NC1CCCCC1
GI50 [1]: 20.2 µM
TGI [1]: 66.4 µM
GI50 [2]: 12.4 µM
TGI [2]: 25 µM
GI50 [3]: 21.4 µM
TGI [3]: 49.6 µM
GI50 [4]: 18.9 µM
GI50 [6]: 73.1 µM
GI50 [7]: 21.9 µM
TGI [7]: 65.2 µM
GI50 [8]: 22.2 µM
TGI [8]: 86.8 µM
GI50 [9]: 55.1 µM
GI50 [10]: 29.3 µM
GI50 [11]: 52.1 µM
GI50 [12]: 20.1 µM
TGI [12]: 42.5 µM
GI50 [13]: 13.2 µM
TGI [13]: 28.4 µM
GI50 [14]: 24.3 µM
TGI [14]: 63.1 µM
GI50 [15]: 22.9 µM
TGI [15]: 75.4 µM
GI50 [16]: 13.7 µM
TGI [16]: 26.9 µM
GI50 [17]: 18.6 µM
TGI [17]: 43.5 µM
GI50 [18]: 32.5 µM
TGI [18]: 78.9 µM
GI50 [19]: 32.8 µM
GI50 [20]: 26 µM
TGI [20]: 81.2 µM
GI50 [22]: 41.1 µM
GI50 [23]: 28.9 µM
GI50 [24]: 27.1 µM
TGI [24]: 78 µM
GI50 [25]: 34.9 µM
GI50 [26]: 20.6 µM
TGI [26]: 50.3 µM
GI50 [27]: 76.1 µM
GI50 [28]: 27.4 µM
TGI [28]: 98 µM
GI50 [29]: 32.3 µM
GI50 [30]: 21.4 µM
TGI [30]: 59.6 µM
GI50 [31]: 29.9 µM
GI50 [32]: 19.5 µM
TGI [32]: 33.8 µM
GI50 [34]: 16.4 µM
TGI [34]: 35.3 µM
GI50 [35]: 51.8 µM
GI50 [36]: 13.2 µM
TGI [36]: 38 µM
GI50 [37]: 34.6 µM
GI50 [38]: 15.4 µM
TGI [38]: 29 µM
GI50 [39]: 17.3 µM
TGI [39]: 36 µM
GI50 [40]: 19.1 µM
TGI [40]: 41.3 µM
GI50 [41]: 21.3 µM
TGI [41]: 61.2 µM
GI50 [42]: 12.5 µM
TGI [42]: 41.6 µM
GI50 [43]: 78 µM
GI50 [44]: 12.2 µM
TGI [44]: 24.8 µM
GI50 [45]: 20.9 µM
TGI [45]: 69.1 µM
GI50 [46]: 22.7 µM
TGI [46]: 54.4 µM
GI50 [47]: 30.3 µM
GI50 [48]: 27.2 µM
GI50 [49]: 13.1 µM
TGI [49]: 42.5 µM
GI50 [50]: 24.9 µM
TGI [50]: 71.4 µM
GI50 [51]: 18.9 µM
TGI [51]: 56.5 µM
GI50 [52]: 51.9 µM
GI50 [53]: 34.6 µM
GI50 [54]: 29 µM
GI50 [55]: 42.5 µM
